Data published in US20140329844A1, “METHOD OF RESTORING THE INCRETIN EFFECT” (NEURENDO PHARMA, LLC, priority 2006, published 2014).
Where “and” joins values, the source holds several entries; their conditions need not be identical. Equal entries are not always repeated.

Assays:
[1] = Meal tolerance test (MTT) in metabolically impaired rhesus monkeys treated with GNTI; assay type: in vivo, rhesus monkey; conditions: for BG / GIP / GLP-1 / Glucagon / Insulin / Glucagon Change T0-T60/120: individual animals
Protocol: To test for the effect of physiological first phase insulin secretion, a meal tolerance test (MTT) was developed. The meal tolerance test involved oral administration of meal based nutrients within suitable ratios of carbohydrates, proteins and fats. The ratios used for the given example were 70% carbohydrates, 8% protein and 22% fats. […] Following MTV administration, the same readings were taken at time points of 3-9 minutes to test for first-phase insulin secretion and the subsequent reduction in blood glucose. It was determined that a first-phase insulin secretion dependent slight increase in insulin concentration appeared, typically, at 5 minutes post MTT administration, followed by a corresponding blood glucose decrease at 7 minutes. A slight decrease in glucagon levels was also coupled with first-phase insulin secretion at 5 minutes. The MTT serves as a corollary to the intravenous glucose tolerance test (MITT) and better measures first-phase insulin secretion because oral administration of nutrients has a more direct effect on the incretin effect.
Table 7 illustrates administration of the MTT to two rhesus monkeys categorized as metabolically “normal’ based on “normal” fasting blood glucose values. The monkeys were given a diet of 55-60% carbohydrates, 15-25% protein, and 15-30% fat. Readings of blood glucose, insulin, and glucagon were taken at time points 0, 5, 7, 60 and 120 minutes. Additionally, at the same time points, the incretin hormones, GIP and GLP-1 were measured to more directly measure the incretin effect. […] Comparison of blood glucose levels at time points 0 and 120 minutes illustrates that normal metabolic functioning has returned the subject's blood glucose levels to normal within 120 minutes of MTT administration.
Table 8 illustrates the effect of GNTI on physiologic control of glucagon Baseline readings were taken on Day 1 of blood glucose, insulin, glucagon, GIP, and GLP-1 in metabolically impaired rhesus monkeys as determined through administration of the MTT. Cumulative in-situ doses of 45 ng/kg and 95 ng/kg were active on day 5 and day 7, respectively, during administration of the MTT. Readings of blood glucose, insulin, glucagon, GIP, and GLP-1 were taken at time points 0, 60 minutes and 120 minutes.

[2] = Daily blood glucose profile of a subject with early stage Type 2 diabetes during GNTI administration; assay type: in vivo; conditions: human; for Average blood glucose by day of week / Readings In Target, 65-155 (as %) / Readings Lows, 51-64 (as %): GNTI once weekly
Protocol: The daily blood glucose profile of a subject with early stage, [non-insulin dependent] Type 2 diabetes was monitored during extended periods of administration of guanidinylated naltrindole (GNTI).
A weekly dose of about 70 ng/kg was administered.
FIGS. 1-3 illustrate the blood glucose readings over an extended period of time, a modal week and a modal day. The target blood glucose range was 65-155 mg/dL. Table 3 illustrates that 98% of the readings were within the target range. The other 2% of the readings fell below the target range and fell between 51-64 mg/dL.
FIGS. 1-3 illustrate the subject's blood glucose readings over an extended period of time, a modal week, and a modal day. Accordingly, 227 blood glucose readings were taken, averaging 92 mg/dL over a 15 day period. 98% of all readings were between 65 and 127 mg/dL, and 2% between […], representing a very narrow overall spread.

[3] = Weight (BMI) of the subject with early stage Type 2 diabetes during GNTI administration; assay type: in vivo; conditions: human, extended periods of GNTI administration
Excerpt: The weight of the subject with early stage Type 2 diabetes mellitus was also monitored during extended periods of administration on GNTI, decreasing from, a baseline body mass index (BMI) of 25 to an average BMI of 22.8, corresponding to a reduction by about 9%.

[4] = Blood glucose, HDL-C and triglycerides in rhesus monkeys after an oral dose of GNTI; assay type: in vivo, rhesus monkey
Protocol: A cohort of rhesus monkeys having progressively increasing degrees of impaired glucose tolerance were monitored following an oral dose of GNTI of 86 ng/kg of body weight. Baseline readings of blood glucose (BC), high density lipoprotein C (HDL-C) and triglycerides (TO) were taken on Day 0.
The effect of GNTI was most readily seen in the change of blood glucose and blood lipid levels. […] The other 4 subjects of the cohort, i.e., r98060, r96027, r00072, r01078, had baseline blood glucose levels ranging from 71-81 and were considered to have impaired glucose tolerance.

[5] = Day 5, GNTI 45 ng/kg cumulative, MTT TP 0 min
[6] = Day 5, GNTI 45 ng/kg cumulative, MTT TP 60 min
[7] = Day 5, GNTI 45 ng/kg cumulative, MTT TP 120 min
[8] = Day 7, GNTI 95 ng/kg cumulative, MTT TP 0 min
[9] = Day 7, GNTI 95 ng/kg cumulative, MTT TP 60 min
[10] = Day 7, GNTI 95 ng/kg cumulative, MTT TP 120 min
[11] = GNTI about 70 ng/kg weekly, Early AM 00:00-04:59
[12] = GNTI about 70 ng/kg weekly, Evening 15:00-18:59
[13] = GNTI about 70 ng/kg weekly, Midday 11:00-14:59
[14] = GNTI about 70 ng/kg weekly, Morning 05:00-10:59
[15] = GNTI about 70 ng/kg weekly, Night 19:00-23:59
[16] = GNTI about 70 ng/kg weekly, all readings, 15 day period
[17] = GNTI about 70 ng/kg weekly, of 227 readings
[18] = GNTI about 70 ng/kg weekly, overall
[19] = early stage Type 2 diabetes, GNTI about 70 ng/kg weekly, 15 days
[20] = four dyslipidemic rhesus monkeys, day 8, oral GNTI 86 ng/kg
[21] = rhesus monkeys, individual animals, Day 8 after oral GNTI 86 ng/kg on Day 0

NC(N)=Nc1ccc2[nH]c3c(c2c1)C[C@@]1(O)[C@H]2Cc4ccc(O)c5c4[C@@]1(CCN2CC1CC1)[C@H]3O5 [GNTI, guanidinylated naltrindole]
Effect on glucagon after MTT ([1]; both dosages (45 and 95 ng/kg), time points 60 and 120, all subjects tested): marked decrease in glucagon | BG [1, 5]: 83 mg/dL and 69 mg/dL and 51 mg/dL | GIP [1, 5]: 50 pg/mL and 8 pg/mL | GLP-1 [1, 5]: 34 pmol/L and 19 pmol/L and 11 pmol/L | Glucagon [1, 5]: 411 pg/mL (2×) and 302 pg/mL | Insulin [1, 5]: 57 microU/mL and 23 microU/mL and 14 microU/mL | BG [1, 6]: 98 mg/dL and 70 mg/dL and 64 mg/dL | GIP [1, 6]: 640 pg/mL and 320 pg/mL and 650 pg/mL | GLP-1 [1, 6]: 83 pmol/L and 49 pmol/L and 31 pmol/L | Glucagon [1, 6]: 366 pg/mL and 172 pg/mL and 267 pg/mL | Insulin [1, 6]: 396 microU/mL and 145 microU/mL and 122 microU/mL | BG [1, 7]: 61 mg/dL and 78 mg/dL and 76 mg/dL | GIP [1, 7]: 760 pg/mL and 775 pg/mL | GLP-1 [1, 7]: 31 pmol/L and 82 pmol/L and 79 pmol/L | Glucagon [1, 7]: 261 pg/mL and 249 pg/mL and 122 pg/mL | Insulin [1, 7]: 200 microU/mL and 249 microU/mL and 137 microU/mL | Glucagon Change T0-T60/120 ([1]; Day 5, GNTI 45 ng/kg cumulative, T0 to T60 min): −11% and −43% and −35% | Glucagon Change T0-T60/120 ([1]; Day 5, GNTI 45 ng/kg cumulative, T0 to T120 min): −36% and −39% and −60% | BG [1, 8]: 56 mg/dL and 82 mg/dL and 73 mg/dL | GIP [1, 8]: 30 pg/mL and 25 pg/mL and 20 pg/mL | GLP-1 [1, 8]: 28 pmol/L and 60 pmol/L and 67 pmol/L | Glucagon [1, 8]: 472 pg/mL and 487 pg/mL and 293 pg/mL | Insulin [1, 8]: 14 microU/mL and 71 microU/mL and 30 microU/mL | BG [1, 9]: 70 mg/dL and 106 mg/dL and 69 mg/dL | GIP [1, 9]: 675 pg/mL (2×) and 75 pg/mL | GLP-1 [1, 9]: 35 pmol/L and 60 pmol/L | Glucagon [1, 9]: 240 pg/mL and 351 pg/mL and 107 pg/mL | Insulin [1, 9]: 100 microU/mL and 401 microU/mL and 54 microU/mL | BG [1, 10]: 63 mg/dL and 95 mg/dL and 86 mg/dL | GIP [1, 10]: 675 pg/mL and 775 pg/mL and 240 pg/mL | GLP-1 [1, 10]: 223 pmol/L and 77 pmol/L | Glucagon [1, 10]: 271 pg/mL and 267 pg/mL and 108 pg/mL | Insulin [1, 10]: 54 microU/mL and 307 microU/mL and 71 microU/mL | Glucagon Change T0-T60/120 ([1]; Day 7, GNTI 95 ng/kg cumulative, T0 to T60 min): −49% and −28% and −63% | Glucagon Change T0-T60/120 ([1]; Day 7, GNTI 95 ng/kg cumulative, T0 to T120 min): −43% and −45% and −63% | Average blood glucose [2, 11]: 79 mg/dL | Readings In Target, 65-155 mg/dL [2, 11]: 100% | Average blood glucose [2, 12]: 91 mg/dL | Readings In Target, 65-155 mg/dL [2, 12]: 100% | Average blood glucose [2, 13]: 92 mg/dL | Readings In Target, 65-155 mg/dL [2, 13]: 98% | Readings Lows, 51-64 mg/dL [2, 13]: 2% | Average blood glucose [2, 14]: 90 mg/dL | Readings In Target, 65-155 mg/dL [2, 14]: 97% | Readings Lows, 51-64 mg/dL [2, 14]: 3% | Average blood glucose [2, 15]: 95 mg/dL | Readings In Target, 65-155 mg/dL [2, 15]: 97% | Readings Lows, 51-64 mg/dL [2, 15]: 3% | Readings between 61 and 65 mg/dL [2, 16]: 2% | Readings between 65 and 127 mg/dL [2, 16]: 98% | Number of readings High (156-300 mg/dL) [2, 17]: 0 | Number of readings Low (51-64 mg/dL) [2, 17]: 5 | Number of readings Target (65-155 mg/dL) [2, 17]: 222 | Number of readings Very High (301-601 mg/dL) [2, 17]: 0 | Number of readings Very Low (0-50 mg/dL) [2, 17]: 0 | Percent of readings High (156-300 mg/dL) [2, 18]: 0% | Percent of readings Very High (301-601 mg/dL) [2, 18]: 0% | Percent of readings Very Low (0-50 mg/dL) [2, 18]: 0% | Readings In Target, 65-155 mg/dL [2, 18]: 98% | Readings Lows, 51-64 mg/dL [2, 18]: 2% | Readings in the hypoglycemic range ([2]; GNTI about 70 ng/kg weekly, readings below target range): none of these readings were in the hypoglycemic range | Average blood glucose by day of week ([2]; Fri): 96 mg/dL | Readings In Target, 65-155 (as %) ([2]; Fri): 100% | Average blood glucose by day of week ([2]; Mon): 92 mg/dL | Readings In Target, 65-155 (as %) ([2]; Mon): 100% | Average blood glucose by day of week ([2]; Sat): 92 mg/dL | Readings In Target, 65-155 (as %) ([2]; Sat): 100% | Average blood glucose by day of week ([2]; Sun): 92 mg/dL | Readings In Target, 65-155 (as %) ([2]; Sun): 100% | Average blood glucose by day of week ([2]; Thur): 94 mg/dL | Readings In Target, 65-155 (as %) ([2]; Thur): 100% | Average blood glucose by day of week ([2]; Tue): 87 mg/dL | Readings In Target, 65-155 (as %) ([2]; Tue): 87% | Readings Lows, 51-64 (as %) ([2]; Tue): 13% | Average blood glucose by day of week ([2]; Wed): 88 mg/dL | Readings In Target, 65-155 (as %) ([2]; Wed): 93% | Readings Lows, 51-64 (as %) ([2]; Wed): 7% | Average blood glucose by day of week ([2]; Weekdays): 92 mg/dL | Readings In Target, 65-155 (as %) ([2]; Weekdays): 97% | Readings Lows, 51-64 (as %) ([2]; Weekdays): 3% | Average blood glucose by day of week ([2]; Weekends): 92 mg/dL | Readings In Target, 65-155 (as %) ([2]; Weekends): 100% | Highest Blood Glucose [2, 19]: 127 mg/dL | Lowest Blood Glucose [2, 19]: 61 mg/dL | Average blood glucose ([2]; early stage Type 2 diabetes, GNTI about 70 ng/kg weekly, overall, 15 days, 227 readings): 92 mg/dL | Maintenance of blood glucose levels within the target range ([2]; once weekly administration, target 65-155 mg/dL): aided in maintaining blood glucose levels within the target range | Reduction of BMI from baseline [3]: about 9% | Average body mass index (BMI) ([3]; baseline BMI 25): 22.8 | Decrease in blood glucose, average ([4]; 4 rhesus monkeys having impaired glucose tolerance, day 8, oral GNTI 86 ng/kg): 26% | HDL-C increase, average [4, 20]: 23% | HDL-C increase, range [4, 20]: 10-31% | Decrease in blood glucose levels ([4]; glucose normal rhesus monkey r89163, day 8, oral GNTI 86 ng/kg): 3% | Increase in HDL-C lipid levels ([4]; lipid normal rhesus monkey r98068, day 8, oral GNTI 86 ng/kg): 5% | BG [4, 21]: 51 mg/dL and 53 mg/dL and 67 mg/dL and 56 mg/dL and 63 mg/dL | HDL-C [4, 21]: 85 mg/dL and 46 mg/dL and 61 mg/dL and 63 mg/dL and 84 mg/dL | TG [4, 21]: <45 mg/dL (3×) and 89 mg/dL and 60 mg/dL | BG Change ([4]; rhesus monkeys, individual animals, Day 8 vs Baseline, oral GNTI 86 ng/kg): (−3%)
